The subject of this assay is CEM cells HIV-1 protection, formazan growth assay. The assay can be described thus: NCI AIDS Antiviral Assay. Particulars: for IC50: measured here: growth of uninfected CEM cells. The procedure, abridged:
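Category rules: moderately active means at least 50% protection on retest, and confirmed active means 100% protection reproducibly. The underlying data came from a formazan growth assay in HIV-1-infected CEM cells.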

This passage reports EC50, IC50 and outcome results from PubChem BioAssay AID179 (DTP/NCI, 2004).

In general, EC50 refers to the midpoint of the concentration-response curve. The term IC50 denotes the concentration that inhibits the measured activity by half. The low end stands for greater potency, the high end for weaker potency.

Molecules are shown by their SMILES. Activity calls are given as the source filed them.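 The calls were made as follows: active = compounds giving half or more protection of infected cells from virus-caused growth loss, again on retest; inactive = the rest.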 A value given as a limit tells only on which side of the number the result lay.

In the case of `Cn1nc2ccc([N+](=O)[O-])cc2[n+]1[O-]`, the EC50 is more than 200 µM and the 50% inhibitory concentration (IC50) worked out at 155 µM.

As to `OC[C@H]1N=C(c2cccs2)OC1c1ccccc1` (stereo partly specified), the EC50 is more than 200 µM and the IC50 is more than 200 µM. For `CCC[CH2][Sn]([CH2]CCC)([S]c1cccc2cccnc12)[S]c1cccc2cccnc12`, the outcome was inactive. On to `CC(=O)N1c2ccccc2C2=NN=C(N(C)C)SC21` (stereo unspecified), for which the result was inactive. As to `CCS(=O)(=O)c1c2cc(OC)ccc2nc2ccc(OC)cc12`, the EC50 is more than 200 µM and the IC50 is more than 200 µM. Turning to `O=C1C(=Cc2ccc([N+](=O)[O-])cc2)C(=O)c2ccccc21`, the EC50 was more than 49 µM and the IC50 was 11.7 µM. For `C[N+](C)(CCO)CCN1c2ccccc2Sc2ccccc21`, the EC50 was more than 200 µM and the IC50 is more than 200 µM. In the case of `CCOC1=NC(C(F)(F)F)(C(F)(F)F)N=C(N2CCOCC2)O1`, the EC50 is more than 200 µM and the IC50 is more than 200 µM.

With `O=c1cc(CO)oc(C(O)c2ccccc2)c1O` (stereo unspecified), the EC50 was more than 200 µM and the IC50 was more than 200 µM. Turning to `c1ccc(C2=C(c3ccccc3)P(c3ccccc3)C2)cc1` (stereo unspecified), the outcome was inactive. `CCN(CC)CCOC(=O)OCCCCOC(=O)OCCN(CC)CC`: the EC50 was more than 200 µM and the IC50 is more than 200 µM. As to `C/C(CC(=O)NC1=CC=C(NC(=O)C/C(C)=N\Nc2ccccc2)CC1)=N/Nc1ccccc1`, the EC50 is more than 56.2 µM and the IC50 was more than 56.2 µM. Turning to `O=C(Cc1ccc([N+](=O)[O-])c([N+](=O)[O-])c1CC(=O)C(=O)Nc1cc(Cl)ccc1Cl)C(=O)Nc1cc(Cl)ccc1Cl`, the EC50 was more than 47.9 µM and the IC50 was found to be 9.33 µM. Take `CC1(O)C[C@]23CC[C@H]4[C@@H](CC=C5C[C@@H](O)CC[C@@]54C)[C@@H]2CC[C@H]13` (stereo partly specified): the EC50 was more than 200 µM and the half-inhibitory concentration (IC50) is more than 200 µM. As to `CCCCCCCCCCCCCCCCNc1nc(=O)n(C2CC(N=[N+]=[N-])C(CO)O2)cc1C` (stereo unspecified), the EC50 is more than 200 µM and the IC50 was found to be 9.33 µM. Turning to `CN1Cc2cc3cc4c(cc3nc2N(C)C1)OCCO4`, the EC50 is more than 200 µM and the IC50 stood at 162 µM. Regarding `CC(NC1CC1)c1ccccc1` (stereo unspecified), the outcome was inactive. Turning to `CN(C)c1ccc2nc3c(C(=O)O)cc(=O)c(O)c-3oc2c1`, the EC50 was more than 100 µM and the IC50 turned out to be 13.8 µM. On to `NCCCCNCCCNC(=O)c1csc(-c2nc(CCN)sc2Cl)n1`, for which the EC50 was more than 302 µM and the IC50 is 18.6 µM. With `CCOc1ccc(NC(=O)CC2C(=O)Nc3ccccc3S2(=O)=O)cc1` (stereo unspecified), the EC50 is more than 19.5 µM and the IC50 was more than 19.5 µM. Take `COc1cc(/C=C2/SC(c3ccccc3)N(c3ccccc3Cl)C2=O)cc(OC)c1OC` (stereo unspecified): the EC50 was more than 200 µM and the IC50 came to 43.7 µM. Take `O=C1[C@@H]2[C@H](C(=O)N1c1ccccc1)[C@H]1CC[C@H]2N1C(=O)c1ccccc1`: the EC50 was more than 55 µM and the IC50 is more than 55 µM. Take `CC(C)Cc1ccc(C(C)C(=O)O)cc1` (stereo unspecified): the EC50 is more than 1200 µM and the IC50 is 389 µM. On to `Cc1ccc(C(=O)Oc2ccccc2)cc1N=NN(C)C`, for which the EC50 was more than 25.7 µM and the IC50 was more than 25.7 µM.

In the case of `CC(C)C1OC2(C)OC(=N)C1(C#N)C(C#N)(C#N)C2C` (stereo unspecified), the EC50 is more than 200 µM and the IC50 worked out at 12 µM. `Nc1ccc2c(c1)C(=O)N(O)C2=O`: the EC50 was more than 1410 µM and the IC50 turned out to be 759 µM. As for `CC(=O)c1ccc(Br)cc1NC1=CC(=O)c2ncccc2C1=O`, the EC50 was more than 200 µM and the IC50 came to 4.68 µM. On to `O=C1c2cccc3cccc(c23)C(=O)N1c1nccs1`, for which the EC50 is more than 50.1 µM and the IC50 was more than 50.1 µM. As to `CCCCCC(/C=C/[C@@H]1CC(=O)C[C@H]1O[Si](C)(C)C(C)(C)C)OCOCCOC` (stereo partly specified), the EC50 is 5.75 µM and the IC50 stood at 7.59 µM. Turning to `CCOC(=O)C(NC(=O)c1[nH]cnc1/N=N/N(C)C)C(C)C` (stereo unspecified), the EC50 was more than 23.4 µM and the IC50 was more than 23.4 µM.
